According to patent publication US6358885B1, “Substituted phenylheterocyclic herbicides” (Mississippi State University, priority 1992, dated 2002):

What was measured:
Experiment in all cases: Test B preemergence/postemergence greenhouse plant response rating 0 to 10
cotton = format: in vivo, Gossypium hirsutum; details: for Plant response rating, Cotton: 0 to 10 scale
How it was run: (§1)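 Planted seeds are treated preemergence with compound dissolved in a non-phytotoxic solvent, while postemergence applications go onto plants of two to eighteen cm. Plants stay in the greenhouse twelve to sixteen days and are then rated visually relative to controls.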

wheat = format: in vivo, Triticum aestivum; details: 0 to 10 scale
How it was run: as §1

sorghum = format: in vivo, Sorghum bicolor; details: 0 to 10 scale
How it was run: as §1

cheatgrass = format: in vivo, Bromus secalinus; details: for Plant response rating, Cheatgrass: 0 to 10 scale
How it was run: as §1

blackgrass = format: in vivo, Alopecurus myosuroides; details: for Plant response rating, Blackgrass: 0 to 10 scale
How it was run: as §1

barley = format: in vivo, Hordeum vulgare; details: for Plant response rating, Barley: 0 to 10 scale
How it was run: as §1

bedstraw = format: in vivo, Galium aparine; details: for Plant response rating, Bedstraw: 0 to 10 scale
How it was run: as §1

rice = format: in vivo, Oryza sativa; details: 0 to 10 scale
How it was run: as §1

rape = format: in vivo, Brassica napus; details: 0 to 10 scale
How it was run: as §1

## CCS(=O)(=O)Oc1cc(-c2nn3c(c2Cl)CCCC3)c(F)cc1Cl [Compound 25]
cotton; POSTEMERGENCE, Rate 50 g/ha
  Plant response rating (0 to 10 scale), Cotton: 10
cotton; POSTEMERGENCE, Rate 200 g/ha
  Plant response rating, Cotton: 10
cotton; PREEMERGENCE, Rate 50 g/ha
  Plant response rating, Cotton: 4
cotton; Rate 200 g/ha, PREEMERGENCE
  Plant response rating, Cotton: 5
wheat; POSTEMERGENCE, Rate 50 g/ha
  Plant response rating, Wheat: 3
wheat; POSTEMERGENCE, Rate 200 g/ha
  Plant response rating, Wheat: 4
wheat; PREEMERGENCE, Rate 50 g/ha
  Plant response rating, Wheat: 0
wheat; Rate 200 g/ha, PREEMERGENCE
  Plant response rating, Wheat: 2
sorghum; POSTEMERGENCE, Rate 50 g/ha
  Plant response rating, Sorghum: 4
sorghum; POSTEMERGENCE, Rate 200 g/ha
  Plant response rating, Sorghum: 5
sorghum; PREEMERGENCE, Rate 50 g/ha
  Plant response rating, Sorghum: 0
sorghum; Rate 200 g/ha, PREEMERGENCE
  Plant response rating, Sorghum: 2
cheatgrass; POSTEMERGENCE, Rate 50 g/ha
  Plant response rating (0 to 10 scale), Cheatgrass: 3
cheatgrass; POSTEMERGENCE, Rate 200 g/ha
  Plant response rating, Cheatgrass: 3
cheatgrass; PREEMERGENCE, Rate 50 g/ha
  Plant response rating, Cheatgrass: 0
cheatgrass; Rate 200 g/ha, PREEMERGENCE
  Plant response rating, Cheatgrass: 3
blackgrass; POSTEMERGENCE, Rate 50 g/ha
  Plant response rating (0 to 10 scale), Blackgrass: 2
blackgrass; POSTEMERGENCE, Rate 200 g/ha
  Plant response rating, Blackgrass: 2
blackgrass; PREEMERGENCE, Rate 50 g/ha
  Plant response rating, Blackgrass: 0
blackgrass; Rate 200 g/ha, PREEMERGENCE
  Plant response rating, Blackgrass: 3
barley; POSTEMERGENCE, Rate 50 g/ha
  Plant response rating (0 to 10 scale), Barley: 4
barley; POSTEMERGENCE, Rate 200 g/ha
  Plant response rating, Barley: 5
barley; PREEMERGENCE, Rate 50 g/ha
  Plant response rating, Barley: 0
barley; Rate 200 g/ha, PREEMERGENCE
  Plant response rating, Barley: 0
bedstraw; POSTEMERGENCE, Rate 50 g/ha
  Plant response rating (0 to 10 scale), Bedstraw: 9
bedstraw; POSTEMERGENCE, Rate 200 g/ha
  Plant response rating, Bedstraw: 9
bedstraw; PREEMERGENCE, Rate 50 g/ha
  Plant response rating, Bedstraw: 5
bedstraw; Rate 200 g/ha, PREEMERGENCE
  Plant response rating, Bedstraw: 10
rice; POSTEMERGENCE, Rate 50 g/ha
  Plant response rating, Rice: 4
rice; POSTEMERGENCE, Rate 200 g/ha
  Plant response rating, Rice: 9
rice; PREEMERGENCE, Rate 50 g/ha
  Plant response rating, Rice: 0
rice; Rate 200 g/ha, PREEMERGENCE
  Plant response rating, Rice: 0
rape; POSTEMERGENCE, Rate 50 g/ha
  Plant response rating, Rape: 10
rape; POSTEMERGENCE, Rate 200 g/ha
  Plant response rating, Rape: 10
rape; PREEMERGENCE, Rate 50 g/ha
  Plant response rating, Rape: 0
rape; Rate 200 g/ha, PREEMERGENCE
  Plant response rating, Rape: 9
